The structures appear in SMILES notation.

Experiment [1] has as its system SJSA-1 osteosarcoma cell line. Description: MTT cell viability assay. It counts as cell-based. The following applies: 72 h incubation, average of 2-5 experiments. The procedure: The effect of the invented p53-Mdm2 inhibitors on cell viability has been assessed using MTT assay. It is a colorimetric assay that measures conversion of tetrazolium ring of the soluble yellow dye (MTT) into insoluble purple formazan. This process is catalysed solely in mitochondrial dehydrogenases of living cells.
Cells were seeded on 96-well plates and then treated with successive dilutions of tested compounds. After 72 h incubation, MTT was added to the final concentration 0.5 mg/ml. The cells were further incubated for the next 4 h. Then the solution was drained and the remaining formazan crystals were dissolved in 100 μl DMSO. […] All the MTT experiments were independently repeated 2-5 times. Dose-dependent binding curves and IC50 values were calculated using GraphPad Prism 5.

Experiment [2] concerns the target T1, p53-Mdm2 interaction (N-terminal domain of Mdm2 protein, amino acids 1-111) (Homo sapiens, UniProt Q00987).
T1 construct: N-terminal domain of Mdm2 protein (amino acids 1-111)
The experiment is described as follows: Fluorescence polarization (FP) binding assay of p53-Mdm2 interaction. The settings on record: for Ki: FP assay, 130 nM Mdm2, FAM-labelled p53 peptide, Ki transformed from IC50 using Kenakin equation; for times more potent than the corresponding S/R (racemic) mixture: enantiopure S isomers vs racemic Compounds 71, 93 and 72, respectively. Summed up:
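N-terminal Mdm2 (aa 1-111) at 130 nM preincubated 15 min with compound (5% DMSO) in PBS, 0.1% CHAPS, 5 mM DTT, then […] FAM-labelled p53 peptide added. Polarization read after 90 min at room temperature (ex 470/em 520 nm). IC50 converted to Ki by Kenakin equation.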

T1 sequence (Q00987 1-111): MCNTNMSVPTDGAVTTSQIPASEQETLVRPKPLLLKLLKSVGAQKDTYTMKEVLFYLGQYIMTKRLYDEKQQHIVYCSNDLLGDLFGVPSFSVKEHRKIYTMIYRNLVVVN

In turn, `Cc1cccc(-n2nc3c(c2C(C)C)C2(C(=O)Nc4cc(Cl)ccc42)N(c2cc(Cl)ccc2C)C3=O)c1` (stereo not shown) [Compound 69, 6-chloro-5′-(5-chloro-2-methylphenyl)-2′-(3-methylphenyl)-3′-(propan-2-yl)-1,2,5′,6′-tetrahydro-2′H-spiro[indole-3,4′-pyrrolo[3,4-c]pyrazole]-2,6′-dione] had an IC50 in experiment [1] (Homo sapiens, SJSA-1, 72 h) of 4.04 µM. This compound had an inhibitory constant (Ki) in experiment [2] of 67 nM.
Take `COc1ccccc1-n1nc2c(c1C(C)C)C1(C(=O)Nc3cc(Cl)ccc31)N(c1cc(Cl)cnc1C)C2=O` (stereo not shown) [Compound 71, 6-chloro-5′-(5-chloro-2-methylpyridin-3-yl)-2′-(2-methoxyphenyl)-3′-(propan-2-yl)-1,2,5′,6′-tetrahydro-2′H-spiro[indole-3,4′-pyrrolo[3,4-c]pyrazole]-2,6′-dione]: it took 0.46 µM to reach half-maximal inhibition in experiment [1] (Homo sapiens, SJSA-1, 72 h) (IC50). The inhibition constant Ki in experiment [2] turned out to be 4.3 nM.
The corresponding values for `COc1ccccc1-n1nc2c(c1C(C)C)C1(C(=O)Nc3cc(Cl)ccc31)N(c1cncc(Cl)c1)C2=O` (stereo not shown) [Compound 72, 6-chloro-5′-(5-chloropyridin-3-yl)-2′-(2-methoxyphenyl)-3′-(propan-2-yl)-1,2,5′,6′-tetrahydro-2′H-spiro[indole-3,4′-pyrrolo [3,4-c]pyrazole]-2,6′-dione] are 0.89 µM and 5.6 nM.
Turning to `COc1ccccc1-n1nc2c(c1C(C)C)C1(C(=O)Nc3cc(Cl)ccc31)N(c1cc(Cl)ccc1OCCS(C)(=O)=O)C2=O` (stereo not shown) [Compound 73, 6-chloro-5′-[5-chloro-2-(2-methanesulfonylethoxy)phenyl]-2′-(2-methoxyphenyl)-3′-(propan-2-yl)-1,2,5′,6′-tetrahydro-2′H-spiro[indole-3,4′-pyrrolo [3,4-c]pyrazole]-2,6′-dione], inhibition in experiment [1] (Homo sapiens, SJSA-1, 72 h) was half-maximal at 11.4 µM (IC50). In experiment [2], this compound gave a Ki of 42 nM.
The corresponding values for `CSc1ccccc1-n1nc2c(c1C(C)C)C1(C(=O)Nc3cc(Cl)ccc31)N(c1cc(Cl)ccc1C)C2=O` (stereo not shown) [Compound 77, 6-chloro-5′-(5-chloro-2-methylphenyl)-2′-[2-(methylsulfanyl)phenyl]-3′-(propan-2-yl)-1,2,5′,6′-tetrahydro-2′H-spiro[indole-3,4′-pyrrolo[3,4-c]pyrazole]-2,6′-dione] are 8.57 µM and 30 nM.
The corresponding values for `COC(=O)c1ccc(OC)c(-n2nc3c(c2C(C)C)C2(C(=O)Nc4cc(Cl)ccc42)N(c2cc(Cl)ccc2C)C3=O)c1` (stereo not shown) [Compound 78, methyl 3-[6-chloro-5′-(5-chloro-2-methylphenyl)-2,6′-dioxo-3′-(propan-2-yl)-1,2,5′,6′-tetrahydro-2′H-spiro[indole-3,4′-pyrrolo[3,4-c]pyrazol]-2′-yl]-4-methoxybenzoate] are 0.36 µM and 3.4 nM.
On to `COC(=O)c1ccc(OC)c(-n2nc3c(c2C(C)C)C2(C(=O)Nc4cc(Cl)ccc42)N(c2cc(Cl)ccc2O)C3=O)c1` (stereo not shown) [Compound 79, methyl 3-[6-chloro-5′-(5-chloro-2-hydroxyphenyl)-2,6′-dioxo-3′-(propan-2-yl)-1,2,5′,6′-tetrahydro-2′H-spiro[indole-3,4′-pyrrolo[3,4-c]pyrazole]-2′-yl]-4-methoxybenzoate], for which the IC50 in experiment [1] (Homo sapiens, SJSA-1, 72 h) is 1.02 µM. The compound also displayed an inhibitory constant (Ki) in experiment [2] of 5.7 nM.
As for `COc1ccccc1-n1nc2c(c1C(C)C)[C@@]1(C(=O)Nc3cc(Cl)ccc31)N(c1cc(Cl)cnc1C)C2=O` [Compound 80, (3S)-6-chloro-5′-(5-chloro-2-methyl-pyridin-3-yl)-2′-(2-methoxyphenyl)-3′-(propan-2-yl)-1,2,5′,6′-tetrahydro-2′H-spiro [indole-3,4′-pyrrolo[3,4-c]pyrazole]-2,6′-dione], in experiment [1] (Homo sapiens, SJSA-1, 72 h), the IC50 was 0.28 µM. Further, in experiment [2], the Ki was found to be 1.9 nM and the “times more potent than the corresponding S/R (racemic) mixture” value is “about 2 times”.
Compound `COc1ccccc1-n1nc2c(c1C(C)C)[C@@]1(C(=O)Nc3cc(Cl)ccc31)N(c1cncc(Cl)c1)C2=O` [Compound 81, (3S)-6-chloro-5′-(5-chloropyridin-3-yl)-2′-(2-methoxyphenyl)-3′-(propan-2-yl)-1,2,5′,6′-tetrahydro-2′H-spiro-[indole-3,4′-pyrrolo[3,4-c]pyrazole]-2,6′-dione] had an IC50 in experiment [1] of 0.8 µM. In experiment [2], the inhibitory constant (Ki) is 2.2 nM and the “times more potent than the corresponding S/R (racemic) mixture” value is listed as “about 2 times”.
On to `Cc1ncc(Cl)cc1N1C(=O)c2n[nH]c(C(C)C)c2C12C(=O)Nc1cc(Cl)ccc12` (stereo not shown) [Compound 84, 6-chloro-5′-(5-chloro-2-methylpyridin-3-yl)-3′-(propan-2-yl)-1,2,5′,6′-tetrahydro-2′H-spiro[indole-3,4′-pyrrolo[3,4-c]pyrazole]-2,6′-dione], for which it took 46.1 µM to reach half-maximal inhibition in experiment [1] (Homo sapiens, SJSA-1, 72 h) (IC50). The Ki in experiment [2] amounted to 152 nM.
The like results for `CCc1ccccc1-n1nc2c(c1CC)C1(C(=O)Nc3cc(Cl)ccc31)N(c1cc(Cl)ccc1C)C2=O` (stereo not shown) [Compound 85, 6-chloro-5′-(5-chloro-2-methylphenyl)-3′-ethyl-2′-(2-ethylphenyl)-1,2,5′,6′-tetrahydro-2′H-spiro[indole-3,4′-pyrrolo [3,4-c]pyrazole]-2,6′-dione] were, in that order, 13 µM and 86 nM.
The compound `COc1ccccc1-n1nc2c(c1C(C)C)[C@@]1(C(=O)Nc3cc(Cl)ccc31)N(c1cncc(Cl)c1)C2=O` [Compound 88, (3S)-6-chloro-5′-(5-chloropyridin-3-yl)-2′-(2-methoxyphenyl)-3′-(propan-2-yl)-1,2,5′,6′-tetrahydro-2′H-spiro[indole-3,4′-pyrrolo[3,4-c]pyrazole]-2,6′-dione] displayed an IC50 in experiment [1] of 0.34 µM. The same compound showed a Ki in experiment [2] of 1.9 nM.
`COc1ccccc1-n1cc2c(c1C(C)C)C1(C(=O)Nc3cc(Cl)ccc31)N(c1cc(Cl)ccc1[N+](=O)[O-])C2=O` (stereo not shown) [Compound 90, 6-chloro-2′-(5-chloro-2-nitrophenyl)-5′-(2-methoxyphenyl)-6′-(propan-2-yl)-1,2,3′,5′-tetrahydro-2′H-spiro[indole-3,1′-pyrrolo [3,4-c]pyrrole]-2,3′-dione]: the IC50 in experiment [1] (Homo sapiens, SJSA-1, 72 h) stood at 6.19 µM. The compound also had a Ki in experiment [2] of 33 nM.
The like results for `COc1ccccc1-n1cc2c(c1C(C)C)C1(C(=O)Nc3cc(Cl)ccc31)N(c1cc(Cl)ccc1NS(C)(=O)=O)C2=O` (stereo not shown) [Compound 92, N-{4-chloro-2-[6-chloro-5′-(2-methoxy-phenyl)-2,3′-dioxo-6′-(propan-2-yl)-1,2,3′,5′-tetrahydro-2′H-spiro[indole-3,1′-pyrrolo[3,4-c]pyrrole]-2′-yl]phenyl} methanesulfonamide] were, in that order, 1.07 µM and 6.6 nM.
The like results for `Cc1ccc(Cl)cc1N1C(=O)c2cn(-c3cccc4c3OCO4)c(C(C)C)c2C12C(=O)Nc1cc(Cl)ccc12` (stereo not shown) [Compound 94, 5′-(2H-1,3-benzodioxol-4-yl)-6-chloro-2′-(5-chloro-2-methylphenyl)-6′-(propan-2-yl)-1,2,3′,5′-tetrahydro-2′H-spiro[indole-3,1′-pyrrolo[3,4-c]pyrrole]-2,3′-dione] were, in that order, 0.93 µM and 9.6 nM.
As to `COc1ccc(C(N)=O)cc1-n1cc2c(c1C(C)C)C1(C(=O)Nc3cc(Cl)ccc31)N(c1cc(Cl)ccc1C)C2=O` (stereo not shown) [Compound 95, 3-[6-chloro-2′-(5-chloro-2-methylphenyl)-2,3′-dioxo-6′-(propan-2-yl)-1,2,3′,5′-tetrahydro-2′H-spiro[indole-3,1′-pyrrolo [3,4-c]pyrrole]-5′-yl]-4-methoxybenzamide], 0.3 µM corresponded to half-maximal inhibition in experiment [1] (Homo sapiens, SJSA-1, 72 h) (IC50). Further, affinity in experiment [2] was put at a Ki of 1.8 nM.

For the origin of these results see patent US20170129903A1, “COMPOUNDS COMPRISING 1,1a,2,5a-TETRAHYDROSPIRO[INDOLE-3,2a-PYRROLE]-2,5a-DIONE SYSTEM AS INHIBITORS P53-MDM2 PROTEIN-PROTEIN INTERACTION” (ADAMED SP. Z O.O., priority 2014, published 2017).
